Source: patent publication US12714685B2, “Drug combination and its use in the treatment of cancer” (priority 2020, dated 2026)
Where two headings read alike, the source gives them in different places.

Columns and labels:
LN-18 cells = experiment: In vitro cytotoxicity (LDH release assay) on LN-18 glioma cells; settings: for IC50: Homo sapiens, LN-18, 24 h
Text: (§1) Two colorimetric assays were established to monitor cytotoxicity in response to the tested drugs, one measuring the release of lactate dehydrogenase (LDH) from cells, a well-established marker for cell toxicity, and the other measuring the activity of mitochondrial […], an indicator of cell viability, by the reduction of the soluble tetrazolium dye MTT. […] Cells were also monitored by direct microscopic observation. Controls included cells treated with medium without drug and cells treated with Camptothesin, a known cytotoxic agent, as positive control. Incubation with drug concentrations was carried out for 24 hours at 37° C.
(§2) DAB was tested in vitro under ideal conditions in absence of any competing physiological amino acid allowing low concentrations of 0.5, 1, 2, 3, 4, 5, 6, 8, 12, and 16 mM.
(§3) Prazosin was tested at concentrations of 0.1, 0.5, 1, 2, 5, 10, 20, 30 and 50 μM.
DAB was used at concentrations of 1, 2 and 4 mM. Each of these concentrations was tested alone or in combination with 1, 2 or 4 μM of Prazosin, i.e. the combinations tested were the following: • 1 mM DAB+1 μM Prazosin • 1 mM DAB+2 μM Prazosin • 1 mM DAB+4 μM Prazosin • 2 mM DAB+1 μM Prazosin • 2 mM DAB+2 μM Prazosin • 2 mM DAB+4 μM Prazosin • 4 mM DAB+1 μM Prazosin • 4 mM DAB+2 μM Prazosin • 4 mM DAB+4 μM Prazosin

[1] = Solubility in aqueous media
[2] = two clinical studies, small patient series; cited from earlier work
HMC3 cells = experiment: In vitro cytotoxicity (LDH release assay) on non-malignant HMC3 cells; format: cell-based, human; settings: 24 hours at 37° C.
Text: as §1, §2, §3

human glioma cells = settings: cited from earlier work
glioblastoma = settings: mouse xenografts; cited from earlier work

Structure (SMILES) | cytotoxic effect against glioma cell line LN-18 (in words) (LN-18 cells; 24 hours at 37° C.) | IC50 (LN-18 cells; read-out: IC50, cytotoxic effect against glioma cell line LN-18) [µM] | solubility in aqueous media [1] | clinical benefit [2] | IC50 against non-malignant HMC3 cells (HMC3 cells) | toxicity towards non-malignant HMC3 cells (in words) (HMC3 cells) | antitumoral activity in vitro (human glioma cells) | cytotoxic effect against glioma cell line LN-18 (in words) (LN-18 cells) | IC50 (LN-18 cells; read-out: IC50, cytotoxic effect against glioma LN-18 line) [µM] | glioblastoma growth (glioblastoma)
NCC[C@H](N)C(=O)O [DAB, L-2,4 diaminobutyric acid] | strong cytotoxic effect | 3800 | soluble | failed to demonstrate significant clinical benefit | no IC50 could be determined | weak toxicity | antitumoral activity | – | – | –
COc1cc2nc(N3CCN(C(=O)c4ccco4)CC3)nc(N)c2cc1OC [Prazosin] | – | – | – | – | no IC50 could be determined | little cytotoxicity | – | strong cytotoxic effect | 3.4 | inhibit glioblastoma growth
